Patent US20040077563A1, “Methods of drug delivery to hepatocytes and treatment of flaviviridae infections” (priority 2003, published 2004)

What was measured:
[1] = system: Hep3B, HepG2 & Huh7 cell lines; assay: Uptake of [3H]-labeled nucleosides by different human liver cell lines; format: cell-based; conditions: for nucleoside uptake into hepatocytes (radioactivity in the cell lysate): Hep3B, HepG2, Huh7, 20 μCi/ml [3H]-nucleoside plus 10 μM cold nucleoside, 4 hr at 37° C, FIG. 1
Experimental: In order to determine whether Ribavirin and Viramidine™ use a similar mode of entry in human hepatocytes, the inventors performed several experiments. First, various strains of hepatocytes (Hep3B, HepG2, and Huh7) were incubated with various nucleotide analogs (e.g., Ribavirin, Levovirin (the L-isomer of Ribavirin), and Viramidine™), and the result of the nucleoside uptake experiments are illustrated in FIG. 1.
Hep3B, HepG2 & Huh7 cell lines were used at a concentration of 50,000 cells/well in a 24-wells plate, and incubated with [^3H]-labeled Ribavirin, Levovirin™, and Viramidine™ (20 μCi/ml) plus 10 μM cold nucleoside for 4 hr at 37° C. The cells were washed with PBS and lysed, and the radioactivity in the cell lysate (i.e.the amount of labeled nucleoside taken up by the cells) was determined in a scintillation counter.

HepG2 cells = assay: Nucleoside competition assay; format: cell-based, human; conditions: cold competitor 0, 100 μM, 500 μM, 2 mM, 2 hrs at 37° C
Experimental: To address this question, the inventors performed uptake competition experiments in which radiolabeled Ribavirin or Viramidine™ competed for uptake with unlabeled Viramidine™ or Ribavirin, respectively.
50,000 HepG2 cells/well were placed in a 24-wells plate and incubated with [3H]-labeled nucleoside (20 μCi/ml). Competition was performed with increasing concentrations of cold (0, 100 μM, 500 μM, and 2 mM) competitor nucleoside. Incubation time was 2 hrs at 37° C. The cells were then washed with PBS and lysed. The radioactivity in the cell lysate (i.e. the amount of labeled nucleoside taken up by the cells) was determined in a scintillation counter.

erythrocytes [2] = conditions: stated as known for Ribavirin; cited from earlier work
flaviviridae = assay: Inhibition of growth of flaviviridae in a cell containing medium; format: cell-based; conditions: added to a cell-containing medium; data not shown
Excerpt: The family of flaviviridae has recently gained special attention due to several occurrences of West Nile Virus encephalitis in the eastern part of the USA, resulting in at least 7 reported deaths and at least 62 cases of severe disease. Moreover, hepatitis C-like viruses (and the HCV virus) also belong to the family of flaviviridae, further adding to the significance of flaviviridae with respect to public and private health. While not wishing to be bound by a particular theory or hypothesis, it is contemplated that increased transport of Viramidine™*HCl is particularly beneficial for treatment of flaviridae-virus infections.

Water solubility = format: physicochemical
Excerpt: It is contemplated that Viramidine™*HCl (in either D- or L-configuration) will be administered in any appropriate pharmaceutical formulation, and under any appropriate protocol. Thus, administration may take place orally, parenterally (including subcutaneous injections, intravenous, intramuscularly, by intrasternal injection or infusion techniques), by inhalation spray, or rectally, topically and so forth, and in dosage unit formulations containing conventional non-toxic pharmaceutically acceptable carriers, adjuvants and vehicles. By way of example, it is contemplated that Viramidine™*HCl can be formulated in admixture with a pharmaceutically acceptable carrier. For example, Viramidine™*HCl can be administered orally as pharmacologically acceptable salts. […] Conventional buffers such as phosphates, bicarbonates or citrates can be used for this purpose. Of course, one of ordinary skill in the art may modify the formulations within the teachings of the specification to provide numerous formulations for a particular route of administration without rendering Viramidine™*HCl unstable or compromising their therapeutic activity. In particular, the modification of Viramidine™*HCl to render it more soluble in water or another vehicle, for example, may be easily accomplished by minor modifications (salt formulation, esterification, etc.) that are well within the ordinary skill in the art. […]

erythrocytes [3] = assay: Uptake into erythrocytes; format: cell-based; conditions: data not shown
Excerpt: Thus, it should be appreciated that toxicity of a nucleoside or nucleotide compound can be reduced by modifying the compound to include a carboxamidine moiety or modified carboxamidine moiety as described above, wherein target cells for modified compounds include a transporter system, which non-target cells lack. […] It is contemplated that this difference in uptake is attributable to the lack of a Viramidine™ uptake and/or transporter system.

[4] = system: deaminase/deamidase activity in hepatocytes; assay: Conversion of carboxamidine to carboxamide in the liver; format: in vitro ADME; conditions: unpublished results
Excerpt: Therefore, it is contemplated that by including a carboxamidine group to a molecule and exploiting the relatively high deaminase/deamidase acitivity of hepatocytes, molecules may be specifically targeted to the liver. With respect to contemplated molecules having a —C(NR1)(NR2R3) it should be appreciated that various deaminase/deamidase acitivities of hepatocytes are sufficiently high to convert such compounds from a prodrug form into an active drug form (e.g., drug activity is increased when carboxamide group is present).

In the case of `NC(=O)c1ncn([C@@H]2O[C@H](CO)[C@@H](O)[C@H]2O)n1` [Ribavirin, 1-beta-D-ribofuranosyl-1,2,4-triazole-3-carboxamide, reference compound], the “nucleoside uptake into hepatocytes (radioactivity in the cell lysate)” value (shortened to “nucleoside uptake into hepatocytes”) [1] is listed as “more efficiently taken up over the L-isomer of Ribavirin”, the “competition of [3H]-Viramidine uptake by unlabeled competitor” value (HepG2 cells; FIG. 3) is listed as “at least partial competition” and the “uptake into erythrocytes (background statement)” value (erythrocytes [2]) is listed as “readily taken up by erythrocytes”.
With `Cl.N=C(N)c1ncn([C@@H]2O[C@H](CO)[C@@H](O)[C@H]2O)n1` [Viramidine™*HCl, 1-beta-D-ribofuranosyl-1,2,4-triazole-3-carboxamidine*HCl] the “inhibition of growth of flaviviridae” value (flaviviridae) was “can be inhibited” and the water solubility (Water solubility) was “mostly water soluble”.
In the case of `N=C(N)c1ncn([C@@H]2O[C@H](CO)[C@@H](O)[C@H]2O)n1` [Viramidine™, 1-beta-D-ribofuranosyl-1,2,4-triazole-3-carboxamidine], the “nucleoside uptake into hepatocytes” value [1] is reported as “taken up to a significantly higher degree in all three cell lines”, the “rate of uptake into, and overall concentration in, hepatocytes as compared to Ribavirin” value ([1]; hepatocytes) is reported as “significantly higher” and the “competition of [3H]-Ribavirin uptake by unlabeled competitor” value (HepG2 cells; FIG. 2) is reported as “at least partial competition”. For the same compound, the uptake into erythrocytes (erythrocytes [3]) was “not taken up into erythrocytes” and the “conversion in the liver” value [4] was “converted in the liver to Ribavirin”.
In the case of `NC(=O)c1ncn([C@H]2O[C@@H](CO)[C@H](O)[C@@H]2O)n1` [Levovirin, reference compound], the “nucleoside uptake into hepatocytes” value [1] is reported as “taken up into all of the tested hepatocytes”.
